From patent US9302999B2, “Substituted triazoles as herbicides” (E. I. DU PONT DE NEMOURS AND COMPANY, priority 2012, dated 2016)

Experiments:
Assay type in all cases: in vivo
[1] = system: barnyardgrass (Echinochloa crus-galli); test: Test A pre-/postemergence: barnyardgrass
Outline: (§1)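 Injury was scored visually on a 0 (no effect) to 100 (complete control) scale versus untreated controls roughly ten days after treatment in the greenhouse. Compounds, formulated in surfactant-containing non-phytotoxic solvent, went on as soil-directed preemergence spray or postemergence to one- to two-leaf plants 2–10 cm tall.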

[2] = system: crabgrass, large (large crabgrass, Digitaria sanguinalis); test: Test A pre-/postemergence: crabgrass, large
Outline: as §1

[3] = system: foxtail, giant (giant foxtail, Setaria faberii); test: Test A pre-/postemergence: foxtail, giant
Outline: as §1

[4] = system: morningglory (Ipomoea spp.); test: Test A pre-/postemergence: morningglory
Outline: as §1

[5] = system: pigweed (Amaranthus retroflexus); test: Test A pre-/postemergence: pigweed
Outline: as §1

[6] = system: velvetleaf (Abutilon theophrasti); test: Test A pre-/postemergence: velvetleaf
Outline: as §1

[7] = system: wheat (Triticum aestivum); test: Test A pre-/postemergence: wheat
Outline: as §1

[8] = system: corn (Zea mays); test: Test A pre-/postemergence: corn
Outline: as §1

[9] = system: rice (Oryza sativa); test: Test C flooded paddy test: rice; settings: scale 0 to 100 (0 no effect, 100 complete control)
Outline: (§2)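 2-leaf stage plants; pots flooded 3 cm above soil; compound applied into paddy water, depth maintained. Greenhouse 13–15 d. Visual rating vs controls, 0–100 (0 = no effect, 100 = complete control); dash = no result.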

[10] = system: sedge, umbrella (small-flower umbrella sedge, Cyperus difformis); test: Test C flooded paddy test: sedge, umbrella; settings: scale 0 to 100 (0 no effect, 100 complete control)
Outline: as §2

[11] = system: ducksalad (Heteranthera limosa); test: Test C flooded paddy test: ducksalad; settings: scale 0 to 100 (0 no effect, 100 complete control)
Outline: as §2

[12] = system: barnyardgrass (Echinochloa crus-galli); test: Test C flooded paddy test: barnyardgrass; settings: scale 0 to 100 (0 no effect, 100 complete control)
Outline: as §2

[13] = Postemergence, 125 g ai/ha, 0 to 100 scale, 0 is no effect, 100 is complete control
[14] = Postemergence, 500 g ai/ha, visual rating on 0 to 100 scale (0 no effect, 100 complete control), approximately ten days
[15] = Preemergence, 125 g ai/ha, 0 to 100 scale (0 no effect, 100 complete control)
[16] = Preemergence, 500 g ai/ha, 0 to 100 scale, 0 is no effect, 100 is complete control
[17] = Flood (flooded paddy test), 125 g ai/ha, visual rating after 13 to 15 days
[18] = Flood (flooded paddy test), 250 g ai/ha, visual rating after 13 to 15 days
[19] = Postemergence, 1000 g ai/ha, visual rating on 0 to 100 scale (0 no effect, 100 complete control), approximately ten days
[20] = Preemergence, 1000 g ai/ha, 0 to 100 scale, 0 is no effect, 100 is complete control
[21] = Flood (flooded paddy test), 62 g ai/ha, visual rating after 13 to 15 days

COc1nn(-c2ccc(C(F)(F)F)cc2)nc1C(F)c1ccnc(C(F)(F)F)c1 (centres unmarked) [Compound 80]
Barnyardgrass plant response rating [1, 13]: 30
Barnyardgrass plant response rating [1, 14]: 70
Plant response rating, Barnyardgrass [1, 15]: 20
Plant response rating, Barnyardgrass [1, 16]: 70
Crabgrass, Large plant response rating [2, 13]: 40
Crabgrass, Large plant response rating [2, 14]: 80
Plant response rating, Crabgrass, Large [2, 15]: 90
Plant response rating, Crabgrass, Large [2, 16]: 100
Foxtail, Giant plant response rating [3, 13]: 30
Foxtail, Giant plant response rating [3, 14]: 80
Plant response rating, Foxtail, Giant [3, 15]: 90
Plant response rating, Foxtail, Giant [3, 16]: 100
Morningglory plant response rating [4, 13]: 40
Morningglory plant response rating [4, 14]: 90
Plant response rating, Morningglory [4, 15]: 0
Plant response rating, Morningglory [4, 16]: 60
Pigweed plant response rating [5, 13]: 100
Pigweed plant response rating [5, 14]: 100
Plant response rating, Pigweed [5, 15]: 100
Plant response rating, Pigweed [5, 16]: 100
Velvetleaf plant response rating [6, 13]: 80
Velvetleaf plant response rating [6, 14]: 100
Plant response rating, Velvetleaf [6, 15]: 30
Plant response rating, Velvetleaf [6, 16]: 70
Wheat plant response rating [7, 13]: 20
Wheat plant response rating [7, 14]: 40
Plant response rating, Wheat [7, 15]: 0
Plant response rating, Wheat [7, 16]: 40
Corn plant response rating [8, 13]: 20
Corn plant response rating [8, 14]: 20
Plant response rating, Corn [8, 15]: 0
Plant response rating, Corn [8, 16]: 10
Plant response rating, Rice [9, 17]: 0
Plant response rating, Rice [9, 18]: 0
Plant response rating, Rice ([9]; Flood, 31 g ai/ha): 0
Plant response rating, Rice ([9]; Flood, 62 g ai/ha): 0
Plant response rating, Sedge, Umbrella [10, 17]: 0
Plant response rating, Sedge, Umbrella [10, 18]: 70
Plant response rating, Sedge, Umbrella ([10]; Flood, 31 g ai/ha): 0
Plant response rating, Sedge, Umbrella ([10]; Flood, 62 g ai/ha): 0
Plant response rating, Ducksalad [11, 17]: 0
Plant response rating, Ducksalad [11, 18]: 0
Plant response rating, Ducksalad ([11]; Flood, 31 g ai/ha): 0
Plant response rating, Ducksalad ([11]; Flood, 62 g ai/ha): 0
Plant response rating, Barnyardgrass [12, 17]: 0
Plant response rating, Barnyardgrass [12, 18]: 20
Plant response rating, Barnyardgrass ([12]; Flood, 31 g ai/ha): 0
Plant response rating, Barnyardgrass ([12]; Flood, 62 g ai/ha): 0

Cc1nn(-c2ccc(F)cc2)nc1Cn1cnc(C(F)(F)F)n1 [Compound 94]
Barnyardgrass plant response rating [1, 19]: 40
Barnyardgrass plant response rating [1, 20]: 70
Crabgrass, Large plant response rating [2, 19]: 80
Crabgrass, Large plant response rating [2, 20]: 100
Foxtail, Giant plant response rating [3, 19]: 70
Foxtail, Giant plant response rating [3, 20]: 100
Morningglory plant response rating [4, 19]: 100
Morningglory plant response rating [4, 20]: 60
Pigweed plant response rating [5, 19]: 100
Pigweed plant response rating [5, 20]: 100
Velvetleaf plant response rating [6, 19]: 80
Velvetleaf plant response rating [6, 20]: 20
Wheat plant response rating [7, 19]: 30
Wheat plant response rating [7, 20]: 0
Corn plant response rating [8, 19]: 40
Corn plant response rating [8, 20]: 0
Plant response rating, Rice [9, 17]: 0
Plant response rating, Rice [9, 18]: 0
Plant response rating, Rice ([9]; Flood, 31 g ai/ha): 0
Plant response rating, Rice ([9]; Flood, 62 g ai/ha): 0
Plant response rating, Sedge, Umbrella [10, 17]: 60
Plant response rating, Sedge, Umbrella [10, 18]: 75
Plant response rating, Sedge, Umbrella ([10]; Flood, 31 g ai/ha): 0
Plant response rating, Sedge, Umbrella ([10]; Flood, 62 g ai/ha): 50
Plant response rating, Ducksalad [11, 17]: 40
Plant response rating, Ducksalad [11, 18]: 60
Plant response rating, Ducksalad ([11]; Flood, 31 g ai/ha): 0
Plant response rating, Ducksalad ([11]; Flood, 62 g ai/ha): 0
Plant response rating, Barnyardgrass [12, 17]: 0
Plant response rating, Barnyardgrass [12, 18]: 0
Plant response rating, Barnyardgrass ([12]; Flood, 31 g ai/ha): 0
Plant response rating, Barnyardgrass ([12]; Flood, 62 g ai/ha): 0

Cc1nn(-c2ccc(F)cc2)nc1Cn1ccc(C(F)(F)F)n1 [Compound 95]
Barnyardgrass plant response rating [1, 19]: 60
Barnyardgrass plant response rating [1, 20]: 50
Crabgrass, Large plant response rating [2, 19]: 80
Crabgrass, Large plant response rating [2, 20]: 100
Foxtail, Giant plant response rating [3, 19]: 60
Foxtail, Giant plant response rating [3, 20]: 100
Morningglory plant response rating [4, 19]: 60
Morningglory plant response rating [4, 20]: 0
Pigweed plant response rating [5, 19]: 100
Pigweed plant response rating [5, 20]: 90
Velvetleaf plant response rating [6, 19]: 70
Velvetleaf plant response rating [6, 20]: 40
Wheat plant response rating [7, 19]: 0
Wheat plant response rating [7, 20]: 0
Corn plant response rating [8, 19]: 30
Corn plant response rating [8, 20]: 10
Plant response rating, Rice [9, 18]: 0
Plant response rating, Rice ([9]; Flood, 62 g ai/ha): 0
Plant response rating, Sedge, Umbrella [10, 18]: 0
Plant response rating, Sedge, Umbrella ([10]; Flood, 62 g ai/ha): 0
Plant response rating, Ducksalad [11, 18]: 0
Plant response rating, Ducksalad ([11]; Flood, 62 g ai/ha): 0
Plant response rating, Barnyardgrass [12, 18]: 0
Plant response rating, Barnyardgrass ([12]; Flood, 62 g ai/ha): 0

COc1cc(Cc2nn(-c3ccc(C(F)(F)F)cc3)nc2C)ccn1 [Compound 31]
Barnyardgrass plant response rating [1, 13]: 10
Barnyardgrass plant response rating [1, 14]: 10
Plant response rating, Barnyardgrass [1, 15]: 0
Plant response rating, Barnyardgrass [1, 16]: 0
Crabgrass, Large plant response rating [2, 13]: 10
Crabgrass, Large plant response rating [2, 14]: 50
Plant response rating, Crabgrass, Large [2, 15]: 0
Plant response rating, Crabgrass, Large [2, 16]: 60
Foxtail, Giant plant response rating [3, 13]: 10
Foxtail, Giant plant response rating [3, 14]: 50
Plant response rating, Foxtail, Giant [3, 15]: 30
Plant response rating, Foxtail, Giant [3, 16]: 90
Morningglory plant response rating [4, 13]: 20
Morningglory plant response rating [4, 14]: 100
Plant response rating, Morningglory [4, 15]: 0
Plant response rating, Morningglory [4, 16]: 0
Pigweed plant response rating [5, 13]: 60
Pigweed plant response rating [5, 14]: 90
Plant response rating, Pigweed [5, 15]: 0
Plant response rating, Pigweed [5, 16]: 50
Velvetleaf plant response rating [6, 13]: 10
Velvetleaf plant response rating [6, 14]: 20
Plant response rating, Velvetleaf [6, 15]: 0
Plant response rating, Velvetleaf [6, 16]: 0
Wheat plant response rating [7, 13]: 0
Wheat plant response rating [7, 14]: 10
Plant response rating, Wheat [7, 15]: 0
Plant response rating, Wheat [7, 16]: 0
Corn plant response rating [8, 13]: 10
Corn plant response rating [8, 14]: 20
Plant response rating, Corn [8, 15]: 0
Plant response rating, Corn [8, 16]: 0
Plant response rating, Rice [9, 21]: 0
Plant response rating, Rice [9, 17]: 0
Plant response rating, Rice [9, 18]: 0
Plant response rating, Rice ([9]; Flood, 31 g ai/ha): 0
Plant response rating, Sedge, Umbrella [10, 21]: 0
Plant response rating, Sedge, Umbrella [10, 17]: 0
Plant response rating, Sedge, Umbrella [10, 18]: 0
Plant response rating, Sedge, Umbrella ([10]; Flood, 31 g ai/ha): 0
Plant response rating, Ducksalad [11, 21]: 0
Plant response rating, Ducksalad [11, 17]: 0
Plant response rating, Ducksalad [11, 18]: 0
Plant response rating, Ducksalad ([11]; Flood, 31 g ai/ha): 0
Plant response rating, Barnyardgrass [12, 21]: 0
Plant response rating, Barnyardgrass [12, 17]: 0
Plant response rating, Barnyardgrass [12, 18]: 0
Plant response rating, Barnyardgrass ([12]; Flood, 31 g ai/ha): 0
